Data on 2 compounds can be found in patent US20230114728A1 (Venatorx Pharmaceuticals, Inc., priority 2019, published 2023).

For one test, the target named is T1, E. coli K12 PBP1a (Escherichia coli, UniProt P02918).
T1 construct: made in house
As to the kind of experiment: Radioligand competition binding assay with 14C-labeled boronic acid probe, E. coli PBP1a. The following applies: PBP1a/PBP1b at 0.1 μM, Compound A at 20 μM, read-out: EC50 (the concentration of inhibitor required to reduce binding of Compound A by 50%). The text has this:
(§1) Example II: Experimental Method to Assess Binding to Penicillin-Binding Proteins: Radioligand Competition Binding Assay
(§2) To determine the ability of boronic acid-based test PBP inhibitors to bind Penicillin Binding Proteins (PBPs), a radio-labelled boronic acid PBP inhibitor:
was used in competition binding assays to determine boronic acid PBP inhibitor binding to PBP1a or PBP1b from Escherichia coli. PBP1a and PBP1b were purified as described previously (Bertsche, U.; et al., J Biol. Chem. 2005, 280 (45), 38096-38101; Born, P.; et al., J Biol. Chem. 2006. 281 (37), 26985-26993). To establish assay conditions for competition binding, an enzyme titration/saturation binding experiment was performed. Saturation binding was performed in a buffer comprised of 20 mM Tris (pH 7.5), 500 mM NaCl and 0.1% (v/v) TritonX-100, with PBP1a/PBP1b at a final concentration of 0.1 μM and Compound A at final concentrations ranging from 0-100 μM. […] The flow through, containing PBP bound with Compound A, was recovered and 100 μL mixed with 5 mL of UltimaGold liquid scintillation cocktail (Perkin Elmer), and the radioactivity counted using a Beckman Coulter LS 6500 Multipurpose scintillation counter. […] The flow through was recovered and 100 μl mixed with 5 ml of UltimaGold liquid scintillation cocktail and the radioactivity counted. […]
For orientation: In a radioligand displacement assay an active substance lowers the binding of a labelled ligand.

Another test addresses T2, E. coli K12 PBP1b (Escherichia coli, UniProt P02919).
T2 construct: made in house
In words: Radioligand competition binding assay with 14C-labeled boronic acid probe, E. coli PBP1b. The following applies: PBP1a/PBP1b at 0.1 μM, Compound A at 20 μM; E. coli PBP1b; read-out: EC50 (the concentration of inhibitor required to reduce binding of Compound A by 50%).
Text: as §1, §2
was used in competition binding assays to determine boronic acid PBP inhibitor binding to PBP1a or PBP1b from Escherichia coli. PBP1a and PBP1b were purified as described previously (Bertsche, U.; et al., J Biol. Chem. 2005, 280 (45), 38096-38101; Born, P.; et al., J Biol. Chem. 2006. 281 (37), 26985-26993). To establish assay conditions for competition binding, an enzyme titration/saturation binding experiment was performed. Saturation binding was performed in a buffer comprised of 20 mM Tris (pH 7.5), 500 mM NaCl and 0.1% (v/v) TritonX-100, with PBP1a/PBP1b at a final concentration of 0.1 μM and Compound A at final concentrations ranging from 0-100 μM. Mixtures were incubated for 60 minutes, then applied to Zeba Spin Desalting columns or plates (ThermoFisher Scientific) and centrifuged at 1000-1500×g for 2 minutes. The flow through, containing PBP bound with Compound A, was recovered and 100 μL mixed with 5 mL of UltimaGold liquid scintillation cocktail (Perkin Elmer), and the radioactivity counted using a Beckman Coulter LS 6500 Multipurpose scintillation counter. PBP binding of Compound A approached saturation at 20 μM of ^14C-labeled probe. The competition binding assay was validated using the beta-lactam ampicillin, with Compound A at a final concentration of 20 μM, PBP1a/PBP1b at a final concentration of 0.1 μM. PBP1a/PBP1b was incubated with ampicillin in a 96-well microplate for 60 minutes, then Compound A was added and the mixtures incubated for an additional 60 minutes. The mixtures were then applied to Zeba Spin desalting plates and centrifuged at 1000×g for 2 minutes. The flow through was recovered and 100 μl mixed with 5 ml of UltimaGold liquid scintillation cocktail and the radioactivity counted. […] Binding assays with boronic acid PBP inhibitors were performed in an identical fashion. […]

The target in another test is A. baumannii PBP1a (Acinetobacter baumannii, UniProt A0ABX6CK30). In words: Bocillin-FL fluorescence polarization competition binding assay, A. baumannii PBP1a. The text has this:
(§3) Example I: Experimental Method for Penicillin-Binding Protein Binding Assays with Bocillin-FL Via Fluorescence Polarization
To determine the ability of boronic acid-based test PBP inhibitors to bind Penicillin Binding Proteins (PBPs), Bocillin-FL (fluorescently-labeled penicillin V; ThermoFisher Scientific) was used in a fluorescence polarization (FP) competition binding assay to assess inhibitor binding to PBP2, PBP3 or PBP4 from Escherichia coli (K12), PBP3 from Pseudomonas aeruginosa (PA01), PBP1a, PBP2 and PBP3 from Acinetobacter baumannii (ATCC 19606), and PBP2 from Neiserria gonorrheae (FA19). PBPs were cloned and purified as described previously (E. coli PBPs, King, D. T, et al., ACS Infectious Diseases 2015, 1, 175-184; P. aeruginosa PBP3, Han et. al., PNAS 2010, 107 (51), 22002-22007; A. baumannii PBPs, Penwell et. al., Antimicrob. Agents Chemother. 2015, 59 (3), 1680-1689; N. gonorrhoeae PBP2, Singh et. al., J Biol. Chem. 2019, 294 (38), 14020-14032). To establish assay conditions for competition binding, enzyme titration/saturation binding experiments were initially performed. Bocillin-FL was prepared at 0.2 μM in a buffer comprised of 50 mM Hepes (pH 8.0), 300 mM NaCl and 5% (v/v) glycerol for reactions with E. coli, P. aeruginosa and N. gonorrhoeae PBPs, and 25 mM Tris (pH 8.0), 200 mM NaCl and 10% (v/v) glycerol and 0.005% (v/v) Tween 20 for reactions with A. baumannii PBPs. Saturation binding was performed by mixing 40 μl of PBP solutions ranging in concentrations from 0-24 μM with 40 μl of the 0.2 μM Bocillin-FL solution, in individual wells of a black 384-well microplate. FP was measured immediately upon mixing (Excitation, 490 nm; Emission, 520 nm; g-factor, 0.96), using a Cytation3 (BioTek) microplate reader and measured continuously for up to 120 minutes. […] The competition binding assay (80 μl final volume) was validated using beta-lactams and PBPs at final concentrations of: 1.5 μM, E. coli PBP3; 0.75 μM, P. aeruginosa PBP3; 1 μM A. baumannii PBP1a; 2.5 μM A. baumannii PBP2; 0.2 μM A. baumannii PBP3; and […] N. gonorrhoeae PBP2. Bocillin-FL was at 0.1 μM (0.05 μM with A. baumannii PBP1a) and beta-lactam concentrations ranged from 0-1000 μM. […] Bocillin-FL was added and the FP immediately measured for up to 60 minutes (90 minutes for E. coli PBP2). […] The beta-lactam potency was reported as the concentration of beta-lactam required to reduce the amount of PBP bound-Bocillin-FL by 50% (EC50). […] Binding assays for boronic acid PBP inhibitors were performed in an identical fashion for the respective PBPs

The next test concerns the target T3, E. coli K12 PBP4 (Escherichia coli, UniProt P24228).
T3 construct: made in house
As to the kind of experiment: Bocillin-FL fluorescence polarization competition binding assay, E. coli PBP4. The following applies: E. coli PBP4; assay validation with beta-lactams; read-out: EC50 (concentration of beta-lactam required to reduce the amount of PBP bound-Bocillin-FL by 50%).
Text: as §3
To determine the ability of boronic acid-based test PBP inhibitors to bind Penicillin Binding Proteins (PBPs), Bocillin-FL (fluorescently-labeled penicillin V; ThermoFisher Scientific) was used in a fluorescence polarization (FP) competition binding assay to assess inhibitor binding to PBP2, PBP3 or PBP4 from Escherichia coli (K12), PBP3 from Pseudomonas aeruginosa (PA01), PBP1a, PBP2 and PBP3 from Acinetobacter baumannii (ATCC 19606), and PBP2 from Neiserria gonorrheae (FA19). PBPs were cloned and purified as described previously (E. coli PBPs, King, D. T, et al., ACS Infectious Diseases 2015, 1, 175-184; P. aeruginosa PBP3, Han et. al., PNAS 2010, 107 (51), 22002-22007; A. baumannii PBPs, Penwell et. al., Antimicrob. Agents Chemother. 2015, 59 (3), 1680-1689; N. gonorrhoeae PBP2, Singh et. al., J Biol. Chem. 2019, 294 (38), 14020-14032). To establish assay conditions for competition binding, enzyme titration/saturation binding experiments were initially performed. Bocillin-FL was prepared at 0.2 μM in a buffer comprised of 50 mM Hepes (pH 8.0), 300 mM NaCl and 5% (v/v) glycerol for reactions with E. coli, P. aeruginosa and N. gonorrhoeae PBPs, and 25 mM Tris (pH 8.0), 200 mM NaCl and 10% (v/v) glycerol and 0.005% (v/v) Tween 20 for reactions with A. baumannii PBPs. Saturation binding was performed by mixing 40 μl of PBP solutions ranging in concentrations from 0-24 μM with 40 μl of the 0.2 μM Bocillin-FL solution, in individual wells of a black 384-well microplate. FP was measured immediately upon mixing (Excitation, 490 nm; Emission, 520 nm; g-factor, 0.96), using a Cytation3 (BioTek) microplate reader and measured continuously for up to 120 minutes. […] Bocillin-FL was added and the FP immediately measured for up to 60 minutes (90 minutes for E. coli PBP2). […]

A further test concerns the target A. baumannii PBP3 (Acinetobacter baumannii, UniProt A0ABX6CK25). In words: Bocillin-FL fluorescence polarization competition binding assay, A. baumannii PBP3. Summed up: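 Fluorescence polarization (ex 490/em 520 nm) competition of inhibitors against Bocillin-FL at 0.1 μM, read up to 60 min. Final PBP levels: E. coli PBP3 1.5 μM; A. baumannii PBP2 2.5 μM, PBP3 0.2 μM in Tris pH 8.0/NaCl/glycerol/Tween 20; N. gonorrhoeae PBP2 […] in Hepes pH 8.0/NaCl/glycerol. EC50 = concentration halving PBP-bound Bocillin-FL.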
For orientation: Polarisation of emitted light reports the rotation of a fluorescent probe.

Structures are written as SMILES. pEC50: −log10 of the molar value. Some results are limits rather than exact numbers.

Turning to `CC1(C)S[C@@H]2[C@H](NC(=O)[C@H](N)c3ccccc3)C(=O)N2[C@H]1C(=O)O` [ampicillin, reference compound], the pEC50 at E. coli K12 PBP1a and at E. coli K12 PBP1b was above 6.30 in each case.

Consider `C[C@@H](O)[C@H]1C(=O)N2C(C(=O)O)=C(S[C@@H]3CN[C@H](C(=O)N(C)C)C3)[C@H](C)[C@H]12` [meropenem, reference compound], for which the pEC50 is 6.64 on A. baumannii PBP1a, above 5.70 on E. coli K12 PBP4 and 6.64 on A. baumannii PBP3.
